Laboratory results taken from patent publication US6706663B2, “Herbicidal 3-heterocyclic substituted benzisothiazole and benzisoxazole compounds” (Wyeth, priority 2000, dated 2004).

Key:
[1] = test system: AMBEL (Ambrosia artemisifolia); experiment: Postemergence herbicidal evaluation; assay type: in vivo, L.
Method in brief: (§1)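 Seedlings grown about two weeks in flats, sprayed, then kept under standard greenhouse care. Rated visually 4–5 weeks after treatment on a 0–9 scale (stand, vigour, malformation, size, chlorosis, overall appearance) relative to untreated control; repeat tests averaged.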

[2] = test system: CHEAL (Chenopodium album); experiment: Postemergence herbicidal evaluation; assay type: in vivo, L.
Method in brief: as §1

[3] = test system: CASOB (Cassia obtusifolia); experiment: Postemergence herbicidal evaluation; assay type: in vivo, L.
Method in brief: as §1

[4] = test system: TRZAWR (Wheat, Winter, cv Riband); experiment: Postemergence herbicidal evaluation; assay type: in vivo, Triticum aestivum
Method in brief: as §1

[5] = test system: SETVI (Setaria viridis); experiment: Postemergence herbicidal evaluation; assay type: in vivo, (L.) Beau
Method in brief: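 Seedlings about two weeks old were sprayed with compound in 50/50 acetone/water plus 0.5% TWEEN 20, at the equivalent of about 0.0040 to 1.000 kg/ha. Plants were kept in a greenhouse and visually rated 0-9 against a control four to five weeks after treatment. Repeat tests were averaged.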

[6] = test system: SETVI (Setaria viridis); experiment: Preemergence herbicidal evaluation; assay type: in vivo, (L.) Beau; details: preemergence, rated 4-5 weeks after treatment
Method in brief: (§2)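 Applied before emergence as an aqueous acetone spray over seeded soil. Read-out: 0–9 visual rating covering plant stand, vigor, size, chlorosis, malformation and overall appearance compared with control, taken 4–5 weeks after spraying.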

[7] = test system: ECHCG (Echinochloa crus-galli); experiment: Preemergence herbicidal evaluation; assay type: in vivo, (L.) Beau; details: preemergence, rated 4-5 weeks after treatment
Method in brief: as §2

[8] = test system: MOOVA (Monochoria vaginalis); experiment: Flooded paddy, preemergence weed control; assay type: in vivo, Presl.; details: rated 3-4 weeks after treatment, 0-9 rating scale
Method in brief: (§3)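 In this preemergence paddy assay, weed seeds or organs are sown at up to 0.5 cm in silt loam and covered by 1.5–3 cm of water for the full test period. After treatment the pots are kept in a greenhouse, and herbicidal effect is rated 0-9 visually against a control.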

[9] = test system: IPOHE (Ipomoea hederacea); experiment: Postemergence herbicidal evaluation; assay type: in vivo, (L.) Jacq.
Method in brief: as §1

[10] = test system: GALAP (Galium aparine); experiment: Postemergence herbicidal evaluation; assay type: in vivo
Method in brief: as §1

[11] = test system: CYPIR (Cyperus iria); experiment: Flooded paddy, preemergence weed control; assay type: in vivo; details: rated 3-4 weeks after treatment, 0-9 rating scale
Method in brief: as §3

[12] = test system: ABUTH (Abutilon theophrasti); experiment: Postemergence herbicidal evaluation; assay type: in vivo, Medic.
Method in brief: as §1

[13] = test system: AMBEL (Ambrosia artemisifolia); experiment: Preemergence herbicidal evaluation; assay type: in vivo, L.; details: preemergence, rated 4-5 weeks after treatment
Method in brief: as §2

[14] = test system: CHEAL (Chenopodium album); experiment: Preemergence herbicidal evaluation; assay type: in vivo, L.; details: preemergence, rated 4-5 weeks after treatment
Method in brief: as §2

[15] = test system: CASOB (Cassia obtusifolia); experiment: Preemergence herbicidal evaluation; assay type: in vivo, L.; details: preemergence, rated 4-5 weeks after treatment
Method in brief: as §2

[16] = test system: SAGPY (Sagittaria pygmaea); experiment: Flooded paddy, preemergence weed control; assay type: in vivo, L.; details: rated 3-4 weeks after treatment, 0-9 rating scale
Method in brief: as §3

[17] = test system: ORYSAT (Rice, Tebonnet); experiment: Preemergence herbicidal evaluation; assay type: in vivo, Oryza sativa, (L.) Tebonnet; details: preemergence, rated 4-5 weeks after treatment
[18] = test system: GALAP (Galium aparine); experiment: Preemergence herbicidal evaluation; assay type: in vivo; details: preemergence, rated 4-5 weeks after treatment
Method in brief: as §2

[19] = test system: ORYSAT (Rice, Tebonnet); experiment: Postemergence herbicidal evaluation; assay type: in vivo, Oryza sativa, (L.) Tebonnet
Method in brief: as §1

[20] = test system: CYPSE (Cyperus serotinus); experiment: Flooded paddy, preemergence weed control; assay type: in vivo, Rottb.; details: rated 3-4 weeks after treatment, 0-9 rating scale
Method in brief: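 Herbicidal effect was scored visually on a 0–9 scale against an untreated control 3–4 weeks after treatment. Compounds were applied preemergence as 50/50 v/v aqueous/acetone mixtures into flood water (1.5–3 cm deep over silt loam), at roughly 0.0080 to 0.1250 kg/ha active ingredient.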

Cc1cscc1-c1nsc2ccc(-n3c(=O)cc(C(F)(F)F)n(C)c3=O)cc12 [Compound 26, 1-methyl-3-[3-(4-methyl-3-thienyl)-1,2-benzisothiazol-5-yl]-6-(trifluoromethyl)uracil]
Postemergence herbicidal rating, AMBEL ([1]; rate 0.0320 kg/ha): 9.0
Postemergence herbicidal rating, AMBEL ([1]; rate 0.0620 kg/ha): 9.0
Postemergence herbicidal rating, CHEAL ([2]; rate 0.0320 kg/ha): 7.0
Postemergence herbicidal rating, CHEAL ([2]; rate 0.0620 kg/ha): 9.0
Postemergence herbicidal rating, CASOB ([3]; rate 0.0320 kg/ha): 4.0
Postemergence herbicidal rating, CASOB ([3]; rate 0.0620 kg/ha): 9.0
Postemergence herbicidal rating, TRZAWR ([4]; rate 0.0320 kg/ha): 3.5
Postemergence herbicidal rating, TRZAWR ([4]; rate 0.0620 kg/ha): 4.5
Postemergence herbicidal rating, SETVI ([5]; rate 0.0320 kg/ha): 7.0
Postemergence herbicidal rating, SETVI ([5]; rate 0.0620 kg/ha): 9.0
SETVI preemergence herbicidal rating ([6]; Rate 0.0620 kg/ha): 9.0
SETVI preemergence herbicidal rating ([6]; Rate 0.1250 kg/ha): 9.0
SETVI preemergence herbicidal rating ([6]; Rate 0.2500 kg/ha): 9.0
ECHCG preemergence herbicidal rating ([7]; Rate 0.0620 kg/ha): 6.5
ECHCG preemergence herbicidal rating ([7]; Rate 0.1250 kg/ha): 9.0
ECHCG preemergence herbicidal rating ([7]; Rate 0.2500 kg/ha): 9.0
herbicidal rating, MOOVA ([8]; rate 0.0080 kg/ha): 9.0
herbicidal rating, MOOVA ([8]; rate 0.0320 kg/ha): 9.0
herbicidal rating, MOOVA ([8]; rate 0.1250 kg/ha): 9.0
Postemergence herbicidal rating, IPOHE ([9]; rate 0.0320 kg/ha): 9.0
Postemergence herbicidal rating, IPOHE ([9]; rate 0.0620 kg/ha): 9.0
Postemergence herbicidal rating, GALAP ([10]; rate 0.0320 kg/ha): 5.0
Postemergence herbicidal rating, GALAP ([10]; rate 0.0620 kg/ha): 6.0
herbicidal rating, CYPIR ([11]; rate 0.0080 kg/ha): 8.5
herbicidal rating, CYPIR ([11]; rate 0.0320 kg/ha): 8.3
herbicidal rating, CYPIR ([11]; rate 0.1250 kg/ha): 9.0
Postemergence herbicidal rating, ABUTH ([12]; rate 0.0320 kg/ha): 9.0
Postemergence herbicidal rating, ABUTH ([12]; rate 0.0620 kg/ha): 9.0
AMBEL preemergence herbicidal rating ([13]; Rate 0.0620 kg/ha): 3.0
AMBEL preemergence herbicidal rating ([13]; Rate 0.1250 kg/ha): 6.0
AMBEL preemergence herbicidal rating ([13]; Rate 0.2500 kg/ha): 8.5
CHEAL preemergence herbicidal rating ([14]; Rate 0.0620 kg/ha): 9.0
CHEAL preemergence herbicidal rating ([14]; Rate 0.1250 kg/ha): 9.0
CHEAL preemergence herbicidal rating ([14]; Rate 0.2500 kg/ha): 9.0
CASOB preemergence herbicidal rating ([15]; Rate 0.0620 kg/ha): 1.0
CASOB preemergence herbicidal rating ([15]; Rate 0.1250 kg/ha): 3.5
CASOB preemergence herbicidal rating ([15]; Rate 0.2500 kg/ha): 6.0
herbicidal rating, SAGPY ([16]; rate 0.0080 kg/ha): 1.5
herbicidal rating, SAGPY ([16]; rate 0.0320 kg/ha): 5.3
herbicidal rating, SAGPY ([16]; rate 0.1250 kg/ha): 8.0
ORYSAT preemergence herbicidal rating ([17]; Rate 0.0620 kg/ha): 2.0
ORYSAT preemergence herbicidal rating ([17]; Rate 0.1250 kg/ha): 3.0
ORYSAT preemergence herbicidal rating ([17]; Rate 0.2500 kg/ha): 5.5
GALAP preemergence herbicidal rating ([18]; Rate 0.0620 kg/ha): 7.0
GALAP preemergence herbicidal rating ([18]; Rate 0.1250 kg/ha): 7.0
GALAP preemergence herbicidal rating ([18]; Rate 0.2500 kg/ha): 9.0
Postemergence herbicidal rating, ORYSAT ([19]; rate 0.0320 kg/ha): 3.5
Postemergence herbicidal rating, ORYSAT ([19]; rate 0.0620 kg/ha): 4.5
herbicidal rating, CYPSE ([20]; rate 0.0320 kg/ha): 0.0
herbicidal rating, CYPSE ([20]; rate 0.1250 kg/ha): 3.0

Cc1cc(C)c(-c2nsc3ccc(-n4c(=O)cc(C(F)(F)F)n(C)c4=O)cc23)s1 [Compound 27, 3-[3-(3,5-dimethyl-2-thienyl)-1,2-benzisothiazol-5-yl]-1-methyl-6-(trifluoromethyl)uracil]
Postemergence herbicidal rating, AMBEL ([1]; rate 0.0320 kg/ha): 9.0
Postemergence herbicidal rating, AMBEL ([1]; rate 0.0620 kg/ha): 9.0
Postemergence herbicidal rating, CHEAL ([2]; rate 0.0320 kg/ha): 9.0
Postemergence herbicidal rating, CHEAL ([2]; rate 0.0620 kg/ha): 9.0
Postemergence herbicidal rating, CASOB ([3]; rate 0.0320 kg/ha): 3.0
Postemergence herbicidal rating, CASOB ([3]; rate 0.0620 kg/ha): 3.0
Postemergence herbicidal rating, TRZAWR ([4]; rate 0.0320 kg/ha): 5.0
Postemergence herbicidal rating, TRZAWR ([4]; rate 0.0620 kg/ha): 5.5
Postemergence herbicidal rating, SETVI ([5]; rate 0.0320 kg/ha): 7.0
Postemergence herbicidal rating, SETVI ([5]; rate 0.0620 kg/ha): 9.0
SETVI preemergence herbicidal rating ([6]; Rate 0.0620 kg/ha): 9.0
SETVI preemergence herbicidal rating ([6]; Rate 0.1250 kg/ha): 9.0
SETVI preemergence herbicidal rating ([6]; Rate 0.2500 kg/ha): 9.0
ECHCG preemergence herbicidal rating ([7]; Rate 0.0620 kg/ha): 6.0
ECHCG preemergence herbicidal rating ([7]; Rate 0.1250 kg/ha): 7.0
ECHCG preemergence herbicidal rating ([7]; Rate 0.2500 kg/ha): 7.0
herbicidal rating, MOOVA ([8]; rate 0.0080 kg/ha): 6.0
herbicidal rating, MOOVA ([8]; rate 0.0320 kg/ha): 9.0
herbicidal rating, MOOVA ([8]; rate 0.1250 kg/ha): 9.0
Postemergence herbicidal rating, IPOHE ([9]; rate 0.0320 kg/ha): 9.0
Postemergence herbicidal rating, IPOHE ([9]; rate 0.0620 kg/ha): 9.0
Postemergence herbicidal rating, GALAP ([10]; rate 0.0320 kg/ha): 2.0
Postemergence herbicidal rating, GALAP ([10]; rate 0.0620 kg/ha): 4.0
herbicidal rating, CYPIR ([11]; rate 0.0080 kg/ha): 4.5
herbicidal rating, CYPIR ([11]; rate 0.0320 kg/ha): 9.0
herbicidal rating, CYPIR ([11]; rate 0.1250 kg/ha): 9.0
Postemergence herbicidal rating, ABUTH ([12]; rate 0.0320 kg/ha): 9.0
Postemergence herbicidal rating, ABUTH ([12]; rate 0.0620 kg/ha): 9.0
AMBEL preemergence herbicidal rating ([13]; Rate 0.0620 kg/ha): 5.0
AMBEL preemergence herbicidal rating ([13]; Rate 0.1250 kg/ha): 5.0
AMBEL preemergence herbicidal rating ([13]; Rate 0.2500 kg/ha): 9.0
CHEAL preemergence herbicidal rating ([14]; Rate 0.0620 kg/ha): 9.0
CHEAL preemergence herbicidal rating ([14]; Rate 0.1250 kg/ha): 9.0
CHEAL preemergence herbicidal rating ([14]; Rate 0.2500 kg/ha): 9.0
CASOB preemergence herbicidal rating ([15]; Rate 0.0620 kg/ha): 1.0
CASOB preemergence herbicidal rating ([15]; Rate 0.1250 kg/ha): 5.0
CASOB preemergence herbicidal rating ([15]; Rate 0.2500 kg/ha): 4.0
herbicidal rating, SAGPY ([16]; rate 0.0080 kg/ha): 0.0
herbicidal rating, SAGPY ([16]; rate 0.0320 kg/ha): 1.7
herbicidal rating, SAGPY ([16]; rate 0.1250 kg/ha): 8.3
ORYSAT preemergence herbicidal rating ([17]; Rate 0.0620 kg/ha): 1.0
ORYSAT preemergence herbicidal rating ([17]; Rate 0.1250 kg/ha): 2.0
ORYSAT preemergence herbicidal rating ([17]; Rate 0.2500 kg/ha): 1.0
GALAP preemergence herbicidal rating ([18]; Rate 0.0620 kg/ha): 9.0
GALAP preemergence herbicidal rating ([18]; Rate 0.1250 kg/ha): 7.0
GALAP preemergence herbicidal rating ([18]; Rate 0.2500 kg/ha): 8.0
Postemergence herbicidal rating, ORYSAT ([19]; rate 0.0320 kg/ha): 4.5
Postemergence herbicidal rating, ORYSAT ([19]; rate 0.0620 kg/ha): 4.5
herbicidal rating, CYPSE ([20]; rate 0.0080 kg/ha): 0.0
herbicidal rating, CYPSE ([20]; rate 0.0320 kg/ha): 4.5
herbicidal rating, CYPSE ([20]; rate 0.1250 kg/ha): 6.0
